pIC50: −log10 of the molar value. Where a name gives a salt, the structure may show the parent alone.
Biological target: T1, rh beta tryptase (Homo sapiens, UniProt P20231)
T1 construct: purchased Promega
Test: Tryptase inhibition test (cleavage of N-p-tosyl-Gly-Pro-Lys-para-nitroaniline, p-nitroaniline measured at 405 nm)
Assay type: biochemical
Details: concentration at which 50% of the tryptase enzyme activity is inhibited; substrate 0.6 mM, pH 7.4, 37° C.
How it was run: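 Recombinant human beta tryptase (0.91 U/ml) in 100 mM Tris HCl pH 7.4 with 5 mM calcium and 100 mg/ml heparin; compounds pre-incubated 5 min, then 0.6 mM tosyl-Gly-Pro-Lys-pNA added, 5 min at 37 °C. p-Nitroaniline read at 405 nm; % inhibition at 10 μM, IC50 determined when inhibition exceeded 70%.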

T1 sequence (P20231 31-275): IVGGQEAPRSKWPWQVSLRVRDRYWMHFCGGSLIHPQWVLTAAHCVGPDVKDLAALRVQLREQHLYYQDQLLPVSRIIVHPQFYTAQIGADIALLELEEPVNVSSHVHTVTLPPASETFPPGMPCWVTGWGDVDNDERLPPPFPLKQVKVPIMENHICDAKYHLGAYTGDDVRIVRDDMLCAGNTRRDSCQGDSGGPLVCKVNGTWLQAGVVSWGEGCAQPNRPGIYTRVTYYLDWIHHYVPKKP

| Compound | pIC50 |
| --- | --- |
| CN(Cc1ccc(C(=N)N)cc1)C(=O)c1ccc2c(c1)nc(CCc1ccc(C(=N)N)cc1)n2C [Example 4, 2-[2-(4-Amidinophenyl)-ethyl]-1-methyl-benzimidazol-5-yl-carboxylic Acid-N-(4-amidino-benzyl)-N-methyl-amide-trihydrochloride] | 7.09 |
| CCOC(=O)CN(Cc1ccc(C(=N)N)cc1)C(=O)c1ccc2c(c1)nc(CCc1ccc(C(=N)N)cc1)n2C [Example 5, 2-[2-(4-Amidinophenyl)-ethyl]-1-methyl-benzimidazol-5-yl-carboxylic Acid-N-(4-amidino-benzyl)-N-ethoxycarbonylmethyl-amide-dihydrochloride] | 6.61 |
| CN(Cc1cccnc1)C(=O)c1ccc2c(c1)nc(CCc1ccc(C(=N)N)cc1)n2C [Example 1, 2-[2-(4-Amidinophenyl)ethyl]-1-methyl-benzimidazol-5-yl-carboxylic Acid-N-(pyridin-3-yl-methyl)-N-methyl-amide-hydrochloride] | 6.05 |
| Cc1ccccc1N1CCCN(C(=O)c2ccc3c(c2)nc(CCc2ccc(CN)cc2)n3C)CC1 [Example 41, 2-[2-(4-Aminomethyl-phenyl)-ethyl]-1-methyl-benzimidazol-5-yl-carboxylic Acid-[N′-(2-methyl-phenyl)-diazepide]-hydrochloride] | 6.76 |
| Cn1c(CCc2ccc(CN)cc2)nc2cc(C(=O)N(CCCc3ccccc3)Cc3ccc(CN)cc3)ccc21 [Example 42, 2-[2-(4-aminomethyl-phenyl)-ethyl]-1-methyl-benzimidazol-5-yl-carboxylic Acid-N-(4-aminomethyl-benzyl)-N-(3-phenylpropyl)-amide-dihydrochloride] | 6.08 |
| Cn1c(CCc2ccc(C(=N)N)cc2)nc2cc(C(=O)N(CCCc3ccccc3)Cc3ccc(C(=N)N)cc3)ccc21 [Example 16, 2-[2-(4-Amidinophenyl)-ethyl]-1-methyl-benzimidazol-5-yl-carboxylic Acid-N-(4-amidinobenzyl)-N-(3-phenylpropyl)-amide-dihydrochloride] | 6.81 |
| Cn1c(CCc2ccc(C(=N)N)cc2)nc2cc(C(=O)NCCNc3ccccc3)ccc21 [Example 38, 2-[2-(4-Amidinophenyl)-ethyl]-1-methyl-benzimidazol-5-yl-carboxylic Acid-N-(2-phenylamino-ethyl)-amide-dihydrochloride] | 6.95 |
| CCCCN(Cc1ccc(CN)cc1)C(=O)c1ccc2c(c1)nc(CCc1ccc(C(=N)N)cc1)n2CCCOCC [Example 86, 2-[2-(4-amidinophenyl)ethyl]-1-(3-ethoxypropyl)-benzimidazol-5-yl-carboxylic acid-N-[4-(amino-methyl)-benzyl]-N-n-butyl-amide] | 6.87 |
| CCOc1ccccc1N1CCN(C(=O)c2ccc3c(c2)nc(CCc2ccc(C(=N)N)cc2)n3C)CC1 [Example 54, 2-[2-(4-Amidinophenyl)-ethyl]-1-methyl-benzimidazol-5-yl-carboxylic Acid-[N′-(2-ethoxyphenyl)-piperazide]] | 6.52 |
| Cn1c(CCc2ccc(C(=N)N)cc2)nc2cc(C(=O)N(CCC(=N)N)c3ccc4ccccc4c3)ccc21 [Example 20, 2-[2-(4-Amidinophenyl)-ethyl]-1-methyl-benzimidazol-5-yl-carboxylic Acid-N-(2-amidinoethyl)-N-(2-naphthyl)-amide-dihydrochloride] | 6.51 |

Now from value to compound:

| pIC50 | Compound |
| --- | --- |
| 6.56 | CCOCCCn1c(CCc2ccc(C(=N)N)cc2)nc2cc(C(=O)N(CCN)CC3CCCCC3)ccc21 [Example 342, 2-[2-(4-amidinophenyl)ethyl]-1-(3-ethoxypropyl)-benzimidazol-5-yl-carboxylic acid-N-(2-aminoethyl)-N-cyclohexylmethyl-amide] |
| 6.82 | CCOCCCn1c(CCc2ccc(C(=N)N)cc2)nc2cc(C(=O)N(Cc3ccc(CN)cc3)Cc3ccc4ccccc4c3)ccc21 [Example 230, 2-[2-(4-amidinophenyl)ethyl]-1-(3-ethoxypropyl)-benzimidazol-5-yl-carboxylic acid-N-[4-(amino-methyl)-benzyl]-N-(2-naphthylmethyl)-amide] |

Same assay, conditions: inhibition of rh beta tryptase at 10 μM test substance; substrate N-p-tosyl-Gly-Pro-Lys-para-nitroaniline 0.6 mM, pH 7.4, 37° C., 5 minutes

| Compound | inhibition at 10 µM [%] | % Inhibition (10 μM) [%] |
| --- | --- | --- |
| 2-[2-(4-amidinophenyl)ethyl]-1-[3-(benzylcarbonylamino)-propyl]-benzimidazol-5-yl-carboxylic acid-N-(2-aminoethyl)-N-(2-pyridyl)-amide [Example 312] | – | 55 |
| CCCCN(CCCC)CCCn1c(CCc2ccc(C(=N)N)cc2)nc2cc(C(=O)N(CCCC)Cc3ccc(CN)cc3)ccc21 [Example 87, 2-[2-(4-amidinophenyl)ethyl]-1-(3-di-n-butylaminopropyl)-benzimidazol-5-yl-carboxylic acid-N-[4-(amino-methyl)-benzyl]-N-n-butyl-amide] | 59 | – |
| CCCCN(Cc1ccc(CN)cc1)C(=O)c1ccc2c(c1)nc(CCc1ccc(C(=N)N)cc1)n2CCCOCC [Example 86, 2-[2-(4-amidinophenyl)ethyl]-1-(3-ethoxypropyl)-benzimidazol-5-yl-carboxylic acid-N-[4-(amino-methyl)-benzyl]-N-n-butyl-amide] | 72 | – |
| 2-[2-(4-amidinophenyl)ethyl]-1-[3-(morpholin-4-yl)-propyl]-benzimidazol-5-yl-carboxylic acid-N-[4-(amino-methyl)-benzyl]-N-(3-pyridyl)-amide [Example 145] | – | 73 |

Continued, values first:

| inhibition at 10 µM [%] | % Inhibition (10 μM) [%] | Compound |
| --- | --- | --- |
| 69 | – | N=C(N)c1ccc(CCc2nc3cc(C(=O)N(Cc4ccc(CN)cc4)Cc4cccc(C(F)(F)F)c4)ccc3n2CCCNC(=O)Cc2ccccc2)cc1 [Example 200, 2-[2-(4-amidinophenyl)ethyl]-1-[3-(benzylcarbonylamino)-propyl]-benzimidazol-5-yl-carboxylic acid-N-[4-(amino-methyl)-benzyl]-N-(3-trifluoromethylbenzyl)-amide] |
| 63 | – | N=C(N)c1ccc(CCc2nc3cc(C(=O)N(Cc4ccc(CN)cc4)CC4CCCCC4)ccc3n2CC2CC2)cc1 [Example 154, 2-[2-(4-amidinophenyl)ethyl]-1-cyclopropylmethyl-benzimidazol-5-yl-carboxylic acid-N-[4-(amino-methyl)-benzyl]-N-cyclohexylmethyl-amide] |
| 60 | – | CCCCN(CCCC)CCCn1c(CCc2ccc(C(=N)N)cc2)nc2cc(C(=O)N(CCN)CCCC)ccc21 [Example 279, 2-[2-(4-amidinophenyl)ethyl]-1-(3-di-n-butylaminopropyl)-benzimidazol-5-yl-carboxylic acid-N-(2-aminoethyl)-N-n-butyl-amide] |
| 74 | – | N=C(N)c1ccc(CCc2nc3cc(C(=O)N(Cc4ccccc4)Cc4ccc(CN)cc4)ccc3n2CCCNC(=O)Cc2ccccc2)cc1 [Example 104, 2-[2-(4-amidinophenyl)ethyl]-1-[3-(benzylcarbonylamino)-propyl]-benzimidazol-5-yl-carboxylic acid-N-[4-(amino-methyl)-benzyl]-N-benzyl-amide] |
| 75 | – | CCOCCCn1c(CCc2ccc(C(=N)N)cc2)nc2cc(C(=O)N(CCN)CC3CCCCC3)ccc21 [Example 342, 2-[2-(4-amidinophenyl)ethyl]-1-(3-ethoxypropyl)-benzimidazol-5-yl-carboxylic acid-N-(2-aminoethyl)-N-cyclohexylmethyl-amide] |
| 63 | – | N=C(N)c1ccc(CCc2nc3cc(C(=O)N(Cc4ccc(CN)cc4)Cc4ccc5ccccc5c4)ccc3n2CC2CCCO2)cc1 (stereo not shown) [Example 242, 2-[2-(4-amidinophenyl)ethyl]-1-(tetrahydrofuran-2-yl-methyl)-benzimidazol-5-yl-carboxylic acid-N-[4-(amino-methyl)-benzyl]-N-(2-naphthylmethyl)-amide] |
| 57 | – | N=C(N)c1ccc(CCc2nc3cc(C(=O)N(CCN)CCCc4ccccc4)ccc3n2CCCN2CCOCC2)cc1 [Example 369, 2-[2-(4-amidinophenyl)ethyl]-1-[3-(morpholin-4-yl)-propyl]-benzimidazol-5-yl-carboxylic acid-N-(2-aminoethyl)-N-(3-phenylpropyl)-amide] |
| 59 | – | CCOCCCn1c(CCc2ccc(C(=N)N)cc2)nc2cc(C(=O)N(Cc3ccc(CN)cc3)Cc3ccc(C(=O)OC)cc3)ccc21 [Example 438, 2-[2-(4-amidinophenyl)ethyl]-1-(3-ethoxypropyl)-benzimidazol-5-yl-carboxylic acid-N-[4-(amino-methyl)-benzyl]-N-[4-(methoxycarbonyl)-benzyl]-amide] |
| 62 | – | CCCCN(Cc1ccc(CN)cc1)C(=O)c1ccc2c(c1)nc(CCc1ccc(C(=N)N)cc1)n2CCc1ccccc1 [Example 91, 2-[2-(4-amidinophenyl)ethyl]-1-(2-phenylethyl)-benzimidazol-5-yl-carboxylic acid-N-[4-(amino-methyl)-benzyl]-N-n-butyl-amide] |
| 51 | – | Cc1ccccc1N1CCN(CCCn2c(CCc3ccc(C(=N)N)cc3)nc3cc(C(=O)N(CCN)Cc4ccccc4)ccc32)CC1 [Example 304, 2-[2-(4-amidinophenyl)ethyl]-1-{3-[4-(2-methylphenyl)-piperazin-1-yl]-propyl}-benzimidazol-5-yl-carboxylic acid-N-(2-aminoethyl)-N-benzyl-amide] |
| 61 | – | CCOCCCn1c(CCc2ccc(C(=N)N)cc2)nc2cc(C(=O)N(Cc3ccc(CN)cc3)Cc3ccc4ccccc4c3)ccc21 [Example 230, 2-[2-(4-amidinophenyl)ethyl]-1-(3-ethoxypropyl)-benzimidazol-5-yl-carboxylic acid-N-[4-(amino-methyl)-benzyl]-N-(2-naphthylmethyl)-amide] |
| 60 | – | CCCCN(CCCC)CCCn1c(CCc2ccc(C(=N)N)cc2)nc2cc(C(=O)N(Cc3ccccc3)Cc3ccc(CN)cc3)ccc21 [Example 103, 2-[2-(4-amidinophenyl)ethyl]-1-(3-di-n-butylaminopropyl)-benzimidazol-5-yl-carboxylic acid-N-[4-(amino-methyl)-benzyl]-N-benzyl-amide] |
| 59 | – | CCCCN(CCCC)CCCn1c(CCc2ccc(C(=N)N)cc2)nc2cc(C(=O)N(CCN)CCCc3ccccc3)ccc21 [Example 359, 2-[2-(4-amidinophenyl)ethyl]-1-(3-di-n-butylaminopropyl)-benzimidazol-5-yl-carboxylic acid-N-(2-aminoethyl)-N-(3-phenylpropyl)-amide] |
| 52 | – | COC(=O)c1ccc(CN(Cc2ccc(CN)cc2)C(=O)c2ccc3c(c2)nc(CCc2ccc(C(=N)N)cc2)n3CCc2ccccc2)cc1 [Example 443, 2-[2-(4-amidinophenyl)ethyl]-1-(2-phenylethyl)-benzimidazol-5-yl-carboxylic acid-N-[4-(amino-methyl)-benzyl]-N-[4-(methoxycarbonyl)-benzyl]-amide] |
| 65 | – | CCCCN(CCN)C(=O)c1ccc2c(c1)nc(CCc1ccc(C(=N)N)cc1)n2CC1CC1 [Example 282, 2-[2-(4-amidinophenyl)ethyl]-1-cyclopropylmethyl-benzimidazol-5-yl-carboxylic acid-N-(2-aminoethyl)-N-n-butyl-amide] |

Reference: US6512000B1, “Aminocarbonyl-substituted benzimidazoles having tryptase-inhibitory activity” (Boehringer Ingelheim Pharma KG, priority 1999, dated 2003)
